This is an account of results in patent US10653739B2, “Medicinal ambrosia maritima extracts” (priority 2015, dated 2020).

Assay [1] relates to UM-UC-17 bladder cancer cell line. The assay can be described thus: MTS IC50, UM-UC-17 bladder cancer cell line. In kind it is cell-based. The conditions noted are these: 1000 cells/well. As for the experimental part:
(§1) MTS was used to evaluate IC50 (drug concentration causing 50% inhibition of the desired activity) for SLs on various bladder, prostate, breast, lung and pancreatic cancer cell lines.
(§2) The MTS test was then conducted to evaluate the different IC50 of multiple cell lines. Purification was performed to separate the organic extract of SLs into different components. Micromolar doses, instead of micrograms, as determined by the molecular weight of the different SLs, Parthenin, Ambrosin, Damsin, and Neoambrosin, were tested in vitro. Ideally, for drug treatments, micromolar weights between 10-15 are preferred.

The subject of assay [2] is UM-UC-9 bladder cancer cell line. The assay can be described thus: MTS IC50, UM-UC-9 bladder cancer cell line. In kind it is cell-based. As to conditions: 1000 cells/well. How it is done:
as §1, §2

Assay [3] deals with UM-UC-15 bladder cancer cell line. The assay can be described thus: MTS IC50, UM-UC-15 bladder cancer cell line. Format: cell-based. As to conditions: 1000 cells/well. As for the experimental part: as §1, §2
The subject of assay [4] is UM-UC-7 bladder cancer cell line. The assay can be described thus: MTS IC50, UM-UC-7 bladder cancer cell line. In kind it is cell-based. As to conditions: 1000 cells/well. How it is done: as §1, §2
Assay [5] concerns MDA-MB-231 breast cancer cell line. The assay can be described thus: MTS IC50, MDA-MB-231 breast cancer cell line. Format: cell-based. The conditions noted are these: for IC50: Homo sapiens, MDA-MB-231, individual SLs, MTS. As for the experimental part: as §1
Several TNBC cell lines were tested in vitro and were treated with serial concentrations of the extracted SLs from Ambrosia maritima to determine IC50.
(§3) The IC50 of the purified SLs, Parthenin, Ambrosin, Damsin, and Neoambrosin, were also tested for MDA-MB-231 cell line (FIG. 22), MDA-MB-468 (Basal Subtype Normal) cell line (FIG. 23), and BT-474 cell line (FIG. 24), an invasive ductal carcinoma cell line (luminal subtype B).
(§4) Similar tests were performed with the organic extract from Ambrosia hispida.

Assay [6] concerns MDA-MB-468 breast cancer cell line. The assay can be described thus: MTS IC50, MDA-MB-468 breast cancer cell line. In kind it is cell-based. As to conditions: Homo sapiens, individual SLs. As for the experimental part: as §1, §3
Assay [7] has as its system BT-474 breast cancer cell line. The assay can be described thus: MTS IC50, BT-474 breast cancer cell line. In kind it is cell-based. As to conditions: Homo sapiens, individual SLs. How it is done: as §1, §3
Assay [8] deals with prostate cancer cell line. The assay can be described thus: MTS IC50, prostate cancer cell line. In kind it is cell-based. As to conditions: purified sub fractions of the organic extraction.
Excerpt: as §1
The concentration is in μmol. As expected, some of the sub fractions affected the cell line to a much greater extent to others.

The subject of assay [9] is MDA-MB-231 breast cancer cells. The assay can be described thus: Orthotopic MDA-MB-231 breast cancer model. Format: in vivo, mice. The conditions noted are these: MDA-MB-231 triple negative cell line. As for the experimental part: Additional in vivo experiments were conducted for three breast cancer cell lines that were orthotopically injected into mice. Orthotopic injection of breast cancer cells is a powerful model to study all aspects of cancer growth. One million cells of each MDA-MB-231, SUM-159 and MDA-MB-468 were injected into the mammary fat pad of mice to form tumors. Once tumors were established, the tumors were treated with the SL-containing organic extraction of Ambrosia maritima at a dose of 200 μM of total SLs/animal daily.
FIGS. 11A-B show the histopathology of the tumor area in the mice treated with the SLs extracted from Ambrosia maritima versus control animals for the SUM-159 and MDA-MB-231 cell lines.
Thus, these components can be purified individually from the SL organic fraction and then combined as a potential treatment.

The subject of assay [10] is BT-20 breast cancer cell line. The assay can be described thus: MTS IC50, BT-20 breast cancer cell line. In kind it is cell-based. The conditions noted are these: Ambrosin purified from Ambrosia hispida. As for the experimental part:
as §1, §4

In assay [11] the test system is UM-UC-9 (bladder) and BT-20 (breast) cancer cell line. The assay can be described thus: Bromouridine sequencing of nascent transcription. Format: cell-based. As to conditions: 3.5 hours treatment. As for the experimental part:
A common method of monitoring RNA changes is by labeling new RNA with Bromouridine, then isolate the RNA to see where the new RNA was made. Bromouridine sequencing is well known in the art.
We used this method to monitor RNA in the UM-UC-9 (bladder) and BT-20 (breast) cancer cell line to detect the level of nascent transcription on the genome after treatment with SLs. Both cell lines were treated with the whole organic fraction at one time, or purified Ambrosin from the organic fraction at different doses for 3.5 hours. The RNA was then labeled with Bromouridine for half an hour and sequenced to detect the level of nascent transcription in the genome.

Bounds are passed on as bounds.

For `C=C1C(=O)O[C@@H]2[C@H]1CC[C@H](C)C1=CCC(=O)[C@]12C` (single isomer, unassigned) [NEOAMBROSIN, Neoambrosin], the IC50 worked out at 31.8 µM in [1]; 142 µM in assay [2] (UM-UC-9, MTS); 146000 nM in assay [3]; 120 µM in [4]; 22.5 µM in assay [5]; 9080 nM in [6]. Also, the values for the IC50 in [7] and in [8] were 36.1 µM and 264 µM, respectively.

`C=C1C(=O)O[C@@H]2[C@H]1CC[C@H](C)[C@@H]1CCC(=O)[C@@]21C` (single isomer, unassigned) [DAMSIN, Damsin]: the IC50 in assay [1] was 2.86 µM; in [2] (MTS), 4.73 µM; in [3] it was 1060 nM; in [4], 1.09 µM; in assay [5] it was 1.6 µM; in [6], 935 nM. The half-maximal inhibitory concentration (IC50) turned out to be 2.8 µM in [7] and 1.16 µM in [8]. In addition, the “level of expression of HER2 and p65 in xenografted animals” value in assay [9] is on record as “significant improves”.

Turning to `C=C1C(=O)O[C@@H]2[C@H]1CC[C@H](C)[C@]1(O)C=CC(=O)[C@@]21C` (single isomer, unassigned) [PARTHENIN, Parthenin], the half-inhibitory concentration (IC50) stood at 6.32 µM in assay [1]; 14.2 µM in [2] (UM-UC-9, MTS); 4900 nM in assay [3]; 6.49 µM in [4]; 4.74 µM in assay [5]; 1230 nM in assay [6]. For the same molecule, the half-maximal inhibitory concentration (IC50) in assay [7] turned out to be 8.57 µM; in [8], 4.88 µM.

As for `C=C1C(=O)O[C@@H]2[C@H]1CC[C@H](C)[C@@H]1C=CC(=O)[C@@]21C` (single isomer, unassigned) [AMBROSIN, Ambrosin], the IC50 in [1] was 1.35 µM; in assay [2] (MTS) it was 6.25 µM; in assay [2] (UM-UC-9, MTS) it was less than 10 µM; in [3], 991 nM; in [4], 4.89 µM; in assay [5], 1.02 µM. Also, the IC50 worked out at 882 nM in [6], 2.17 µM in [7] and 2.71 µM in [8]. Besides, the “IC50 of purified Ambrosin compared with SL extract of Ambrosia hispida, MDA-MB-231” value in assay [5] (Ambrosin purified from Ambrosia hispida) was “greater IC50”. Besides, in assay [10], the “IC50 of purified Ambrosin compared with SL extract of Ambrosia hispida, BT-20” value was “greater IC50”. Besides, the “level of expression of HER2 and p65 in xenografted animals” value in assay [9] was “significant improves”. Further, the “nascent transcription of genes of apoptotic pathway, reactive oxygen species pathway” value in [11] is listed as “upregulated”. Besides, the “nascent transcription of hallmark genes related to cancer progression and proliferation” value in assay [11] was “transcribing them at lower level than the control”.
